# Data published in US20210308089A1, “METHODS OF TREATING AND/OR PREVENTING VIRAL INFECTIONS AND/OR DISEASES CAUSED BY VIRUSES IN A SUBJECT IN NEED THEREOF” (priority 2020, published 2021).
# System: patients of the REDUCE-IT and earlier EPA placebo-controlled trials
# Assay: Example 3: adverse events by risk ratio, icosapent ethyl vs placebo (candidate categories; infectious disease terms of interest)
# Conditions: R-I
smiles,measurement,value
"CC/C=C\C/C=C\C/C=C\C/C=C\C/C=C\CCCC(=O)OCC [icosapent ethyl, eicosapentaenoic acid ethyl ester]",AR: Bipolar Disease (AE table),0.0%
same,AR: Blood CPK increased (AE table),1.6%
same,AR: Blood glucose increased (AE table),0.2%
same,AR: Bone Fractures (AE table),0.0%
same,AR: Bronchiectasis (AE table),0.1%
same,AR: Bronchitis chronic (AE table),0.2%
same,AR: CKD (AE table),1.3%
same,AR: COPD (AE table),2.7%
same,AR: Carotid bruit (AE table),0.4%
same,AR: Cholestasis (AE table),0.0%
same,AR: Chrohn's Disease (AE table),0.0%
same,AR: Cognitive Decline: Attention disorders and disturbances (AE table),0.0%
same,AR: Cognitive Decline: Cognitive and attention disorders and disturbances (AE table),0.0%
same,AR: Cough (AE table),5.9%
same,AR: Decreased Appetite (AE table),0.5%
same,AR: Deep Venous Thromboembolism (AE table),0.2%
same,AR: Depression: Depressed mood disorders and disturbances (AE table),2.9%
same,AR: Depression: Depressive disorders (AE table),2.8%
same,AR: Depression: Depressive disorders - Agitated depression (AE table),0.0%
same,AR: Depression: Depressive disorders - Depression (AE table),2.6%
same,AR: Depression: Depressive disorders - Major depression (AE table),0.0%
same,AR: Depression: Depressive disorders - Persistent depressive disorder (AE table),0.0%
same,AR: Depression: Mood alterations - Depressed mood (AE table),0.1%
same,AR: Depression: Mood alterations - Depressive symptom (AE table),0.0%
same,AR: Depression: Mood alterations with depressive symptoms (AE table),0.2%
same,AR: Dermatitis psoriasiform (AE table),0.0%
same,"AR: Dermatitis, allergic (AE table)",0.2%
same,AR: Diabetic Nephropathy (AE table),0.3%
same,AR: ESRD (AE table),0.1%
same,AR: Ear infection (AE table),0.9%
same,AR: Embolism and Thrombosis (AE table),1.2%
same,AR: Emphysema (AE table),0.4%
same,AR: Epilepsy (AE table),0.0%
same,AR: Erectile dysfunction (AE table),1.8%
same,AR: Furuncle (AE table),0.2%
same,"AR: Gastroenteritis, viral (AE table)",1.1%
same,AR: Gastroesophageal reflux (AE table),0.1%
same,AR: Gingivitis (AE table),0.2%
same,AR: Glomerulonephritis and Nephrotic Syndrome (AE table),0.0%
same,AR: Guttate psoriasis (AE table),0.0%
same,AR: Helicobacter infection (AE table),0.2%
same,AR: Hepatitis C (AE table),0.0%
same,AR: Herpes Zoster (AE table),1.8%
same,AR: Herpes simplex (AE table),0.2%
same,AR: Hyperglycemia (AE table),2.0%
same,AR: Hyperkalemia (AE table),1.1%
same,AR: Hypertension (AE table),8.1%
same,AR: Hypertensive Crisis (AE Table),0.9%
same,AR: Hypokalemia (AE table),2.0%
same,AR: Hypomagnesemia (AE table),0.9%
same,AR: Infected bite (AE table),0.1%
same,AR: Influenza (AE table),6.5%
same,AR: Influenza like illness (AE table),0.6%
same,AR: Jaundice cholestatic (AE table),0.0%
same,AR: Large intestine polyps (AE table),0.2%
same,AR: Limb Fractures and Dislocations (AE table),0.8%
same,AR: Lupus (AE table),0.0%
same,AR: Microalbuminuria (AE table),0.2%
same,AR: Migraine (AE table),0.2%
same,AR: Mucosal inflammation (AE table),0.1%
same,AR: Multiple Sclerosis (AE table),0.0%
same,AR: Muscle spasms (AE table),2.0%
same,AR: NASH (AE table),0.1%
same,AR: NASH for b/l NFS >0.675 (AE table),0.3%
same,AR: NASH+Hepatic Steatosis for NFS >0.675 (AE table),"1,6%"
same,"AR: Nasopharyngitis, Mild Severity (AE table)",7.7%
same,AR: Nephrolithiasis (AE table),2.0%
same,AR: Nephropathies (AE table),0.6%
same,AR: Nephrotic Syndrome (AE table),0.0%
same,AR: Orthopnea (AE table),0.1%
same,AR: PTSD (AE table),0.1%
same,AR: Pancytopenia (AE table),0.2%
same,AR: Pneumonia (AE table),6.6%
same,AR: Proteinuria (AE table),0.5%
same,AR: Psoriasis (AE table),0.5%
same,AR: Psoriatic Conditions (AE table),0.6%
same,AR: Psychosis: Psychotic disorder NEC (AE table),0.0%
same,AR: Pulmonary Edema (AE table),0.3%
same,AR: Respiratory Failure (AE table),0.5%
same,AR: Respiratory tract infection (AE table),"1,2%"
same,AR: Rheumatoid Arthritis (AE table),0.0%
same,AR: Rhinitis (AE table),0.5%
same,AR: Schizophrenia NEC (AE table),0.0%
same,AR: Sepsis (AE table),0.9%
same,AR: Severe chronic obstructive pulmonary disease (AE table),0.5%
same,"AR: Severe dermatitis, allergic (AE table)",0.1%
same,AR: Severe gastroenteritis (AE table),0.2%
same,AR: Severe sepsis (AE table),0.6%
same,AR: Severe systemic inflammatory response syndrome (AE table),0.1%
same,AR: Severe urinary tract infection (AE table),0.4%
same,AR: Systemic inflammatory response syndrome (AE table),0.1%
same,AR: Tooth infection (AE table),0.6%
same,AR: Ulcerative Colitis (AE table),0.0%
same,AR: Upper respiratory tract infection (AE table),7.7%
same,AR: Vascular hypertensive disorder (AE table),9.0%
same,AR: Viral infection (AE table),0.5%
same,AR: Vulvovaginal mycotic infection (AE table),0.2%
same,AR: Wheezing (AE table),0.7%
same,ARR: ADHD (AE table),0.0%
same,ARR: Allergic sinusitis (AE table),−0.0%
same,ARR: Alzheimer's Disease (AE table),0.0%
same,ARR: Asthma (AE table),0.1%
same,ARR: Atelectasis (AE table),−0.3%
same,ARR: Bipolar Disease (AE table),−0.0%
same,ARR: Blood CPK increased (AE table),−0.6%
same,ARR: Blood glucose increased (AE table),−0.1%
same,ARR: Bone Fractures (AE table),0.0%
same,ARR: Bronchiectasis (AE table),−0.1%
same,ARR: Bronchitis chronic (AE table),−0.1%
same,ARR: CKD (AE table),0.1%
same,ARR: COPD (AE table),0.2%
same,ARR: Carotid bruit (AE table),−0.3%
same,ARR: Cholestasis (AE table),0.0%
same,ARR: Chrohn's Disease (AE table),−0.0%
same,ARR: Cognitive Decline: Attention disorders and disturbances (AE table),0.0%
same,ARR: Cognitive Decline: Cognitive and attention disorders and disturbances (AE table),0.0%
same,ARR: Cough (AE table),0.0%
same,ARR: Decreased Appetite (AE table),0.5%
same,ARR: Deep Venous Thromboembolism (AE table),−0.1%
same,ARR: Depression: Depressed mood disorders and disturbances (AE table),0.3%
same,ARR: Depression: Depressive disorders (AE table),0.3%
same,ARR: Depression: Depressive disorders - Agitated depression (AE table),0.0%
same,ARR: Depression: Depressive disorders - Depression (AE table),0.2%
same,ARR: Depression: Depressive disorders - Major depression (AE table),0.0%
same,ARR: Depression: Depressive disorders - Persistent depressive disorder (AE table),0.0%
same,ARR: Depression: Mood alterations - Depressed mood (AE table),0.0%
same,ARR: Depression: Mood alterations - Depressive symptom (AE table),−0.0%
same,ARR: Depression: Mood alterations with depressive symptoms (AE table),−0.0%
same,ARR: Dermatitis psoriasiform (AE table),0.0%
same,"ARR: Dermatitis, allergic (AE table)",−0.2%
same,ARR: Diabetic Nephropathy (AE table),−0.0%
same,ARR: ESRD (AE table),−0.0%
same,ARR: Ear infection (AE table),−0.2%
same,ARR: Embolism and Thrombosis (AE table),0.1%
same,ARR: Emphysema (AE table),−0.2%
same,ARR: Epilepsy (AE table),0.0%
same,ARR: Erectile dysfunction (AE table),−0.4%
same,ARR: Furuncle (AE table),−0.1%
same,"ARR: Gastroenteritis, viral (AE table)",−0.3%
same,ARR: Gastroesophageal reflux (AE table),−0.1%
same,ARR: Gingivitis (AE table),−0.1%
same,ARR: Glomerulonephritis and Nephrotic Syndrome (AE table),−0.1%
same,ARR: Guttate psoriasis (AE table),0.0%
same,ARR: Helicobacter infection (AE table),−0.1%
same,ARR: Hepatitis C (AE table),0.0%
same,ARR: Herpes Zoster (AE table),−0.1%
same,ARR: Herpes simplex (AE table),−0.1%
same,ARR: Hyperglycemia (AE table),−0.5%
same,ARR: Hyperkalemia (AE table),−0.6%
same,ARR: Hypertension (AE table),−0.6%
same,ARR: Hypertensive Crisis (AE Table),−0.3%
same,ARR: Hypokalemia (AE table),0.1%
same,ARR: Hypomagnesemia (AE table),−0.3%
same,ARR: Infected bite (AE table),−0.0%
same,ARR: Influenza (AE table),−0.2%
same,ARR: Influenza like illness (AE table),−0.1%
same,ARR: Jaundice cholestatic (AE table),0.1%
same,ARR: Large intestine polyps (AE table),−0.2%
same,ARR: Limb Fractures and Dislocations (AE table),−0.1%
same,ARR: Lupus (AE table),−0.0%
same,ARR: Microalbuminuria (AE table),−0.3%
same,ARR: Migraine (AE table),0.2%
same,ARR: Mucosal inflammation (AE table),−0.0%
same,ARR: Multiple Sclerosis (AE table),−0.0%
same,ARR: Muscle spasms (AE table),−1.1%
same,ARR: NASH (AE table),−0.1%
same,ARR: NASH for b/l NFS >0.675 (AE table),−0.4%
same,ARR: NASH+Hepatic Steatosis for NFS >0.675 (AE table),−0.5%
same,"ARR: Nasopharyngitis, Mild Severity (AE table)",−0.2%
same,ARR: Nephrolithiasis (AE table),0.1%
same,ARR: Nephropathies (AE table),−0.2%
same,ARR: Nephrotic Syndrome (AE table),−0.0%
same,ARR: Orthopnea (AE table),−0.1%
same,ARR: PTSD (AE table),−0.0%
same,ARR: Pancytopenia (AE table),−0.1%
same,ARR: Pneumonia (AE table),−0.3%
same,ARR: Proteinuria (AE table),−0.2%
same,ARR: Psoriasis (AE table),0.3%
same,ARR: Psoriatic Conditions (AE table),0.3%
same,ARR: Psychosis: Psychotic disorder NEC (AE table),−0.0%
same,ARR: Pulmonary Edema (AE table),−0.2%
same,ARR: Respiratory Failure (AE table),−0.0%
same,ARR: Respiratory tract infection (AE table),−0.1%
same,ARR: Rheumatoid Arthritis (AE table),−0.1%
same,ARR: Rhinitis (AE table),−0.1%
same,ARR: Schizophrenia NEC (AE table),−0.0%
same,ARR: Sepsis (AE table),−0.2%
same,ARR: Severe chronic obstructive pulmonary disease (AE table),−0.1%
same,"ARR: Severe dermatitis, allergic (AE table)",−0.1%
same,ARR: Severe gastroenteritis (AE table),−0.1%
same,ARR: Severe sepsis (AE table),−0.2%
same,ARR: Severe systemic inflammatory response syndrome (AE table),−0.1%
same,ARR: Severe urinary tract infection (AE table),−0.2%
same,ARR: Systemic inflammatory response syndrome (AE table),−0.1%
same,ARR: Tooth infection (AE table),−0.2%
same,ARR: Ulcerative Colitis (AE table),−0.0%
same,ARR: Upper respiratory tract infection (AE table),−0.2%
same,ARR: Vascular hypertensive disorder (AE table),−0.8%
same,ARR: Vulvovaginal mycotic infection (AE table),−0.1%
same,ARR: Wheezing (AE table),−0.3%
same,NNT: ADHD (AE table),−8362005
same,NNT: Allergic sinusitis (AE table),2046
same,NNT: Alzheimer's Disease (AE table),−3344802
same,NNT: Asthma (AE table),−1019
same,NNT: Atelectasis (AE table),372
same,NNT: Bipolar Disease (AE table),2045
same,NNT: Blood CPK increased (AE table),164
same,NNT: Blood glucose increased (AE table),682
same,NNT: Bone Fractures (AE table),−4088
same,NNT: Bronchiectasis (AE table),1364
same,NNT: Bronchitis chronic (AE table),1023
same,NNT: CKD (AE table),−680
same,NNT: COPD (AE table),−453
